{
  "source": "BindingDB's records for PubMed 8968358",
  "about": "(University of California, 1996)",
  "target": "Muscarinic acetylcholine receptor M3 (Rattus norvegicus, UniProt P08483)",
  "sequence (P08483 whole entry)": "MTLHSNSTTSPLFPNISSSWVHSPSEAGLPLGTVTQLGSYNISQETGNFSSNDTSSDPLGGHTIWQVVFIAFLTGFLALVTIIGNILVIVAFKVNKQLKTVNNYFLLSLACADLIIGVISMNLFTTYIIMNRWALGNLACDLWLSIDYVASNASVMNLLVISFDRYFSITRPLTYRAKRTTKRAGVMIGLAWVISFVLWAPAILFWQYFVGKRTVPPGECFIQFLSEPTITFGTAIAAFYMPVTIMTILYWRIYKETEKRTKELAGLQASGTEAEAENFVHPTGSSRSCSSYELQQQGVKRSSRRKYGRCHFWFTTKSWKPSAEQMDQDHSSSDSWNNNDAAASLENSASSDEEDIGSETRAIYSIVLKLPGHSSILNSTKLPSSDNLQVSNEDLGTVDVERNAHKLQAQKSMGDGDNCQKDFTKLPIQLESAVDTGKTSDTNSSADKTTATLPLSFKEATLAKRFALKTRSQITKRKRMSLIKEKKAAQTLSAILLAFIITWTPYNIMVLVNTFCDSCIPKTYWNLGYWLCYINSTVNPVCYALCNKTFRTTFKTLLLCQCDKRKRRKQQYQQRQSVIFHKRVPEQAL",
  "data": [
    {"smiles": "C[N+](C)(C)CC#CCN1CCCC1=O", "values": [
      {"measurement": "Ki", "value": 8.7, "unit": "µM"}
    ]}
  ]
}
